Measured values taken from patent US20230293517A1, “ANTAGONIST COMPOUNDS” (AdoRx Therapeutics Limited, priority 2020, published 2023).

How the values were obtained:
[1] = target: human Adenosine A2b receptor (Homo sapiens (Human), UniProt P29275); assay: Adenosine receptor TR-FRET binding assay (A2b); conditions: TR-FRET, inhibition of binding of 30 nM CA200645, CHO cell membranes
How it was run: (§1)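 CHO membranes, Tb-labelled hA1/hA2a/hA2b/hA3; tracer CA200645 at 100 nM (A1, A2a, A3) or 30 nM (A2b); buffer with saponin, 1% DMSO, pluronic; 2 h RT. NSB with 10 μM XAC. Read TR-FRET (ex 337, em 620/665 nm); IC50 → Ki via Cheng–Prusoff.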

[2] = target: human Adenosine A3 receptor (Homo sapiens (Human), UniProt P0DMS8); assay: Adenosine receptor TR-FRET binding assay (A3); conditions: inhibition of binding of 100 nM CA200645, CHO cell membranes
How it was run: as §1

[3] = target: human Adenosine A2a receptor (Homo sapiens (Human), UniProt P29274); assay: Adenosine receptor TR-FRET binding assay (A2a); conditions: inhibition of binding of 100 nM CA200645, CHO cell membranes
How it was run: as §1

[4] = system: CD8+T cells in human whole blood; assay: Measurement of pCREB in CD8+T cells in human whole blood; assay type: cell-based; conditions: 3 μM NECA, rolipram
Description: Biological Example—Measurement of pCREB in CD8+T Cells in Human Whole Blood
Heparinised human whole blood was pre-incubated at 37° C. with serial dilutions of A2a antagonists for 20 min. and the phosphodiesterase inhibitor rolipram to amplify the pCREB response. The adenosine receptor agonist NECA is then added at a final concentration of 3 μM and following a 60 min incubation the blood is fixed and red blood cells lysed. White blood cells are isolated, permeabilized and stained with directly conjugated fluorescent antibodies to phospho-CREB (Alexa Fluor 488) and CD8 (Alexa Fluor 647) and the level of phospho-CREB in CD8+T cells is measured by FACS using a BD Accuri C6 Flow Cytometer.

human PBMCs = assay: CD3/CD28 stimulated IL-2 release NECA reversal assay in human PBMCs; assay type: cell-based; conditions: PBMC, 1 uM NECA, 24 hours, IL-2 in culture supernatant
Description: Biological Example—CD3/CD28 Stimulated IL-2 Release NECA Reversal Assay in Human PBMCs
Blood is drawn from healthy volunteers using sodium citrate as the anticoagulant (0.3% final concentration). After centrifugation of the blood over Histopaque-1077, PBMCs are collected from the Histopaque/plasma interface and washed twice in PBS (300 g for 10 mins at room temp). Cells are plated at 50,000 cells/well in 150 μl RPMI/10% FCS in 96-well cell culture plates that have been precoated with 1 ug/ml CD3 antibody. 50 μl diluted compound mix is added to the cells, to obtain final concentrations of 1 ug/ml CD28 antibody, 1 uM NECA and 0.003-10 μM adenosine receptor antagonist. Assay plates are incubated for 24 hours at 37° C. in a humidified incubator. Culture supernatant is tested for IL-2 levels using the human IL-2 Tissue Culture Kit (Meso Scale Discovery). Data for dose-response curves is calculated as % inhibition with 100% inhibition defined from no agonist control wells (+CD3/28-NECA)

[5] = target: human Adenosine A1 receptor (Homo sapiens (Human), UniProt P30542); assay: Adenosine receptor TR-FRET binding assay (A1); conditions: inhibition of binding of 100 nM CA200645, CHO cell membranes
How it was run: as §1

Sequence of human Adenosine A2a receptor (P29274 whole entry): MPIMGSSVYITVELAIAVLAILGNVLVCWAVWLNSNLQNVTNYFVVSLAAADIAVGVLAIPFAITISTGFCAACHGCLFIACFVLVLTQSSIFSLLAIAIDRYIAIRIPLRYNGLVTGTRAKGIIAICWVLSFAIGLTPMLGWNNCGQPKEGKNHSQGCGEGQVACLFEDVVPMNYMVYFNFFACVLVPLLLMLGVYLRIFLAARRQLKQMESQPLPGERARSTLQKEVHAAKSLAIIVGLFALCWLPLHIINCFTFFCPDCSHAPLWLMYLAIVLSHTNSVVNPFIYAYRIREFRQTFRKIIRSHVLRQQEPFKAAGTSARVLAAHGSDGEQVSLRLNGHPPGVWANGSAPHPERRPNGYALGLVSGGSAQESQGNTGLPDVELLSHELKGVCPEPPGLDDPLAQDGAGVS
Sequence of human Adenosine A3 receptor (P0DMS8 whole entry): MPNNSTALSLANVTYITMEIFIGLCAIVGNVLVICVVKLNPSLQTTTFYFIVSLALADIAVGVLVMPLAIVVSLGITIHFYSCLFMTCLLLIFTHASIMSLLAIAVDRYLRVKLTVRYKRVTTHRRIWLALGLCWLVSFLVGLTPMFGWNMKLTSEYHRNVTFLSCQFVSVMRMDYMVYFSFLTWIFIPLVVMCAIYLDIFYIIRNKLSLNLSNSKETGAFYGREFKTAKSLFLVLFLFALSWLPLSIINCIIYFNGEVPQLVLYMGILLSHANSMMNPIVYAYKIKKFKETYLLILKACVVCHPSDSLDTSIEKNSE
Sequence of human Adenosine A1 receptor (P30542 whole entry): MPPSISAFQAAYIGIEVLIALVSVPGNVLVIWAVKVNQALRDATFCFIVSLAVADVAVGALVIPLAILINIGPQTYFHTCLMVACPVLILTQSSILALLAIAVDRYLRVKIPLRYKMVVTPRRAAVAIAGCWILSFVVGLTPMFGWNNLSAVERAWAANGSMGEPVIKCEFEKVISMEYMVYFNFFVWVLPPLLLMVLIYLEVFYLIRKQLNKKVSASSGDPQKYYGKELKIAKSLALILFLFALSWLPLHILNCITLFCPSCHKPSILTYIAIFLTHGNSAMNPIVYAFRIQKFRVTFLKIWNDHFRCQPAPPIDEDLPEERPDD
Sequence of human Adenosine A2b receptor (P29275 whole entry): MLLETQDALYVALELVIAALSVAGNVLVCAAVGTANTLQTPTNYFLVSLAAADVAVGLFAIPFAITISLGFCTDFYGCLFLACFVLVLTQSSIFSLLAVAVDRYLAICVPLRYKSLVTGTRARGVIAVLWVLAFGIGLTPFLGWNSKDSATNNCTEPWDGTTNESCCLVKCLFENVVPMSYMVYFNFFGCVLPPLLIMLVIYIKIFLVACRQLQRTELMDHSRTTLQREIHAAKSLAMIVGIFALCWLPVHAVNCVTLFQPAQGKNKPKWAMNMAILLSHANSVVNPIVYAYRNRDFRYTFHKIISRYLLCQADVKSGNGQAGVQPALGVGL

Row | SMILES | Ki [1] [nM] | Ki [2] [nM] | Ki [3] [nM] | IC50 [4] [nM] | IC50 (human PBMCs) [nM] | Ki [5] [nM]
1 | Cc1cc(-c2sc(NC(=O)N3CCN(C4COC4)CC3)nc2-c2cccc(C#N)c2)cc(Cl)n1 [Example 3.11] | 1.2 | 1300 | 0.52 | 670 | 10.4 | 102
2 | Cc1cc(-c2sc(NC(=O)N3CC[C@@H](C#N)C3)nc2-c2cccc(C#N)c2)cc(C)n1 [Example 4.10, (3R)-3-Cyano-N-[4-(3-cyanophenyl)-5-(2,6-dimethyl-4-pyridyl)thiazol-2-yl]pyrrolidine-1-carboxamide] | 2.5 | 157 | 0.38 | 100 | 2.9 | 50
3 | Cc1cc(-c2sc(NC(=O)N3CCNC(=O)C3)nc2-c2cccc(C#N)c2)cc(C)n1 [Example 4.13, N-[4-(3-Cyanophenyl)-5-(2,6-dimethyl-4-pyridyl)thiazol-2-yl]-3-oxo-piperazine-1-carboxamide] | 1.7 | 195 | 1.5 | 550 | 14.1 | 50
4 | Cc1cc(-c2sc(NC(=O)N3CCN[C@H](C(C)(C)O)C3)nc2-c2cccc(C#N)c2)cc(C)n1 [Example 6.75, (3S)-N-[4-(3-Cyanophenyl)-5-(2,6-dimethyl-4-pyridyl)thiazol-2-yl]-3-(1-hydroxy-1-methyl-ethyl)piperazine-1-carboxamide] | 4.8 | 361 | 0.81 | 180 | 5.9 | 99
5 | Cc1cc(-c2sc(NC(=O)N3CCN[C@H](C(C)(C)O)C3)nc2-c2cccc(C#N)c2)cc(Cl)n1 [Example 3.9] | 2.2 | 338 | 0.49 | 470 | 17.9 | 81
6 | Cc1cc(-c2sc(NC(=O)N3CCC4(CCOC(=O)N4)CC3)nc2-c2cccc(C#N)c2)cc(C)n1 [Example 6.50, N-[4-(3-Cyanophenyl)-5-(2,6-dimethyl-4-pyridyl)thiazol-2-yl]-2-oxo-3-oxa-1,9-diazaspiro[5.5]undecane-9-carboxamide] | 3.4 | 472 | 1.63 | 190 | 3.6 | 136
7 | Cc1cc(-c2sc(NC(=O)N3CCC4(CC3)CN(C)C(=O)O4)nc2-c2cccc(C#N)c2)cc(C)n1 [Example 6.12, N-[4-(3-Cyanophenyl)-5-(2,6-dimethyl-4-pyridyl)thiazol-2-yl]-3-methyl-2-oxo-1-oxa-3,8-diazaspiro[4.5]decane-8-carboxamide] | 2.4 | 298 | 0.23 | 110 | 2.7 | 137
8 | Cc1cc(-c2sc(NC(=O)N3CCC(N4CCNC4=O)CC3)nc2-c2cccc(C#N)c2)cc(C)n1 [Example 6.30, N-[4-(3-Cyanophenyl)-5-(2,6-dimethyl-4-pyridyl)thiazol-2-yl]-4-(2-oxoimidazolidin-1-yl)piperidine-1-carboxamide] | 2 | 187 | 0.82 | 530 | 6.9 | 97
9 | Cc1cc(-c2sc(NC(=O)N3CC(CO)C3)nc2-c2cccc(C#N)c2)cc(C)n1 [Example 4.25, N-[4-(3-Cyanophenyl)-5-(2,6-dimethyl-4-pyridyl)thiazol-2-yl]-3-(hydroxymethyl)azetidine-1-carboxamide] | 1.8 | 120 | 0.12 | 50 | 1.1 | 14
10 | Cc1cc(-c2sc(NC(=O)N3CCC4(CC3)CC(=O)N(C)C4)nc2-c2cccc(C#N)c2)cc(C)n1 [Example 6.38, N-[4-(3-Cyanophenyl)-5-(2,6-dimethyl-4-pyridyl)thiazol-2-yl]-2-methyl-3-oxo-2,8-diazaspiro[4.5]decane-8-carboxamide] | 3.6 | 278 | 0.83 | 580 | 6 | 170
11 | Cc1cc(-c2sc(NC(=O)N3CCN(C)CC3)nc2-c2cccc(C#N)c2)cc(C)n1 [Example 4, N-[4-(3-Cyanophenyl)-5-(2,6-dimethyl-4-pyridyl)thiazol-2-yl]-4-methyl-piperazine-1-carboxamide] | 0.7 | 1000 | 1.01 | 130 | 3.8 | 60
12 | Cc1cc(-c2sc(NC(=O)N3CCN4C(=O)NCCC4C3)nc2-c2cccc(C#N)c2)cc(C)n1 (stereo not drawn) [Example 6.42, N-[4-(3-Cyanophenyl)-5-(2,6-dimethyl-4-pyridyl)thiazol-2-yl]-6-oxo-3,4,7,8,9,9a-hexahydro-1H-pyrazino[1,2-c]pyrimidine-2-carboxamide] | 9 | 438 | 0.39 | 130 | 5 | 44
13 | Cc1cc(-c2sc(NC(=O)N3CCN[C@H](C(N)=O)C3)nc2-c2cccc(C#N)c2)cc(Cl)n1 [Example 5.8, (3S)-N1-[5-(2-Chloro-6-methyl-4-pyridyl)-4-(3-cyanophenyl)thiazol-2-yl]piperazine-1,3-dicarboxamide] | 1.8 | 474 | 0.68 | 980 | 18.4 | 34
14 | Cc1cc(-c2sc(NC(=O)N3CCN4C(=O)OCCC4C3)nc2-c2cccc(C#N)c2)cc(C)n1 (stereo not drawn) [Example 6.17, N-[4-(3-Cyanophenyl)-5-(2,6-dimethyl-4-pyridyl)thiazol-2-yl]-6-oxo-1,3,4,8,9,9a-hexahydropyrazino[1,2-c][1,3]oxazine-2-carboxamide] | 6.5 | 405 | 0.46 | 70 | 5.3 | 35
15 | Cc1cc(-c2sc(NC(=O)N3CCC4(CCC(=O)N4)CC3)nc2-c2cccc(C#N)c2)cc(C)n1 [Example 6.45, N-[4-(3-Cyanophenyl)-5-(2,6-dimethyl-4-pyridyl)thiazol-2-yl]-2-oxo-1,8-diazaspiro[4.5]decane-8-carboxamide] | 2 | 183 | 0.44 | 310 | 9.4 | 104
16 | Cc1cc(-c2sc(NC(=O)N3CCC(C)(C#N)C3)nc2-c2cccc(C#N)c2)cc(C)n1 (racemic) [Example 27, 3-Cyano-N-[4-(3-cyanophenyl)-5-(2,6-dimethyl-4-pyridyl)thiazol-2-yl]-3-methyl-pyrrolidine-1-carboxamide] | 0.8 | 225 | 0.41 | 80 | 0.9 | 21
17 | Cc1cc(-c2sc(NC(=O)N3CCN(CCO)CC3)nc2-c2cccc(C#N)c2)cc(C)n1 [Example 4.3, N-[4-(3-Cyanophenyl)-5-(2,6-dimethyl-4-pyridyl)thiazol-2-yl]-4-(2-hydroxyethyl)piperazine-1-carboxamide] | 3.8 | 603 | 0.7 | 170 | 18.2 | 187
18 | Cc1cc(-c2sc(NC(=O)N3C[C@@H]4C[C@H]3CN4)nc2-c2cccc(C#N)c2)cc(Cl)n1 [Example 5.6, (1S,4S)-N-[5-(2-Chloro-6-methyl-4-pyridyl)-4-(3-cyanophenyl)thiazol-2-yl]-2,5-diazabicyclo[2.2.1]heptane-2-carboxamide] | 4.2 | 31 | 2.13 | 720 | 30.5 | 22
19 | Cc1cc(-c2sc(NC(=O)N3CCN(C4COC4)CC3)nc2-c2cccc(C#N)c2)cc(C(F)(F)F)n1 [Example 6.61, N-[4-(3-Cyanophenyl)-5-[2-methyl-6-(trifluoromethyl)-4-pyridyl]thiazol-2-yl]-4-(oxetan-3-yl)piperazine-1-carboxamide] | 3.2 | 57 | 1.52 | 350 | 17.2 | 112
20 | Cc1cc(-c2sc(NC(=O)N3CCC(C(C)(C)O)C3)nc2-c2cccc(C#N)c2)cc(Cl)n1 (stereo not drawn) [Example 2, N-[5-(2-Chloro-6-methyl-4-pyridyl)-4-(3-cyanophenyl)thiazol-2-yl]-3-(1-hydroxy-1-methyl-ethyl)pyrrolidine-1-carboxamide] | 1 | 849 | 0.4 | 280 | 2 | 234
